The target of this assay is T1, human recombinant HPK1 (Homo sapiens, UniProt Q92918).
T1 construct: purchased BPS Bioscience
Nature of the assay: Inhibitory activity against human recombinant HPK1 (TR-FRET). Format: biochemical. As to conditions: ULight-p70S6K peptide, ATP at Km, room temperature, 1 hour, 0.32 to 1000 nM compound. The method in brief: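 IC50 classes A–D use 10, 50 and 100 nM cut-offs, derived from TR-FRET signal inhibition relative to DMSO controls. Human recombinant HPK1 phosphorylated ULight-p70S6K peptide at Km ATP for 1 h, room temperature, pH 7.4; test range 0.32–1000 nM final, detection with Eu-labelled antibody after EDTA quench.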
For orientation: TR-FRET usually uses a lanthanide donor and a delayed reading to cut background.

Where a name gives a salt, the structure may show the parent alone.

T1 sequence (Q92918 whole entry): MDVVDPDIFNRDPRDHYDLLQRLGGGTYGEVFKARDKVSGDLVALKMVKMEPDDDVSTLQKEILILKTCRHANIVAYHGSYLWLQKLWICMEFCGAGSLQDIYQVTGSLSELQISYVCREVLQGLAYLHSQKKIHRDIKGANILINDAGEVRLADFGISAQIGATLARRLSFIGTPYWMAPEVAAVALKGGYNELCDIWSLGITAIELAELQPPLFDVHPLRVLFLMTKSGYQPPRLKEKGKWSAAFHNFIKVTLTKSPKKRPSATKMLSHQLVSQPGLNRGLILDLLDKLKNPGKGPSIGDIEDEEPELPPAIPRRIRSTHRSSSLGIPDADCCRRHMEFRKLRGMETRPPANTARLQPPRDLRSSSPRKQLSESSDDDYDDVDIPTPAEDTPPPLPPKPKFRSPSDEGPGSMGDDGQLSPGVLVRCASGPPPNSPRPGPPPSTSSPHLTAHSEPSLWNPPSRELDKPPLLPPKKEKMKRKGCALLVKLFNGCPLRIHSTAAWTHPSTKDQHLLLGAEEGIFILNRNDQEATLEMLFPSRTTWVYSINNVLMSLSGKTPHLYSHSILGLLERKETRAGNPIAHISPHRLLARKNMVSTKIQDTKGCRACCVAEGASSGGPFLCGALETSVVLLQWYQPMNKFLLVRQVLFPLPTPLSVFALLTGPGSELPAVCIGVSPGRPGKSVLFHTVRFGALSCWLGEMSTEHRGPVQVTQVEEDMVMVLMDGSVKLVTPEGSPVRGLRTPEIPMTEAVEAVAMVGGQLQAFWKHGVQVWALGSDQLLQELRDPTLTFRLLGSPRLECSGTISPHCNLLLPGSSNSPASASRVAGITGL

For orientation: IC50 means the concentration that gives 50% inhibition. Turning to `COc1cccc(F)c1-c1nc(Nc2cc(N3CCC[C@H](O)C3)c(-c3cnn(C4CCOCC4)c3)cn2)ccc1C#N` [Example 59, 2-(2-fluoro-6-methoxyphenyl)-6-((4-((S)-3-hydroxypiperidin-1-yl)-5-(1-(tetrahydro-2H-pyran-4-yl)-1H-pyrazol-4-yl)pyridin-2-yl)amino)nicotinonitrile], the IC50 was at most 0.01 µM.
As for `COC(=O)c1ccc(Nc2cc(N3CCC[C@H](O)C3)c(-c3cnn(C4CCOCC4)c3)cn2)nc1-c1c(F)cccc1OC` [Example 60, methyl 2-(2-fluoro-6-methoxyphenyl)-6-((4-((S)-3-hydroxypiperidin-1-yl)-5-(1-(tetrahydro-2H-pyran-4-yl)-1H-pyrazol-4-yl)pyridin-2-yl)amino)nicotinate], the IC50 was at most 0.01 µM.
As to `COc1cccc(F)c1-c1nccc(Nc2cc(N3CCC[C@H](O)C3)c(-c3ccc4nccn4c3)cn2)n1` [Example 61, (S)-1-(2-((2-(2-fluoro-6-methoxyphenyl)pyrimidin-4-yl)amino)-5-(imidazo[1,2-a]pyridin-6-yl)pyridin-4-yl)piperidin-3-ol], the IC50 fell in the range of 0.01 to 0.05 µM.
Turning to `COc1cccc(F)c1-c1nccc(Nc2cc(N3CCC[C@H](O)C3)c(-c3ccc4nncn4c3)cn2)n1` [Example 62, (S)-1-(5-([1,2,4]triazolo[4,3-a]pyridin-6-yl)-2-((2-(2-fluoro-6-methoxyphenyl)pyrimidin-4-yl)amino)pyridin-4-yl)piperidin-3-ol], the concentration for half-maximal inhibition (IC50) is 0.05 to 0.1 µM.
For `COc1cccc(F)c1-c1nccc(Nc2cc(N3CCC(CCN(C)C)CC3)c(-c3cnn(C4CCOCC4)c3)cn2)n1` [Example 64, N-(4-(4-(2-(dimethylamino)ethyl)piperidin-1-yl)-5-(1-(tetrahydro-2H-pyran-4-yl)-1H-pyrazol-4-yl)pyridin-2-yl)-2-(2-fluoro-6-methoxyphenyl)pyrimidin-4-amine], the IC50 is at most 0.01 µM.
Under `COc1cccc(F)c1-c1nccc(Nc2cc(N3CCC(C4(O)CC4)CC3)c(-c3cnn(C4CCOCC4)c3)cn2)n1` [Example 65, 1-(1-(2-((2-(2-fluoro-6-methoxyphenyl)pyrimidin-4-yl)amino)-5-(1-(tetrahydro-2H-pyran-4-yl)-1H-pyrazol-4-yl)pyridin-4-yl)piperidin-4-yl)cyclopropan-1-ol] stands at most 0.01 µM; under `COc1cccc(F)c1-c1nccc(Nc2cc(N3CCC(C(C)O)CC3)c(-c3cnn(C4CCOCC4)c3)cn2)n1` (stereo not shown) [Example 66, 1-(1-(2-((2-(2-fluoro-6-methoxyphenyl)pyrimidin-4-yl)amino)-5-(1-(tetrahydro-2H-pyran-4-yl)-1H-pyrazol-4-yl)pyridin-4-yl)piperidin-4-yl)ethan-1-ol], at most 0.01 µM; under `COc1cccc(F)c1-c1nccc(Nc2cc(N3CCC(C(C)(C)CO)CC3)c(-c3cnn(C4CCOCC4)c3)cn2)n1` [Example 67, 2-(1-(2-((2-(2-fluoro-6-methoxyphenyl)pyrimidin-4-yl)amino)-5-(1-(tetrahydro-2H-pyran-4-yl)-1H-pyrazol-4-yl)pyridin-4-yl)piperidin-4-yl)-2-methylpropan-1-ol], at most 0.01 µM.
In the case of `COc1cccc(F)c1-c1nccc(Nc2cc(N3CCN(C)CC3)c(-c3cnn(C4CCOCC4)c3)cn2)n1` [Example 68, 2-(2-fluoro-6-methoxyphenyl)-N-(4-(4-methylpiperazin-1-yl)-5-(1-(tetrahydro-2H-pyran-4-yl)-1H-pyrazol-4-yl)pyridin-2-yl)pyrimidin-4-amine], the IC50 lay in the range of 0.01 to 0.05 µM.
Consider `O[C@H]1CCCN(c2cc(Nc3ccnc(-c4cc5nccnc5cc4F)n3)ncc2-c2cnn(C3CCOCC3)c2)C1` [Example 69, (S)-1-(2-((2-(7-fluoroquinoxalin-6-yl)pyrimidin-4-yl)amino)-5-(1-(tetrahydro-2H-pyran-4-yl)-1H-pyrazol-4-yl)pyridin-4-yl)piperidin-3-ol], for which the IC50 was at most 0.01 µM.
Take `COc1cccc(F)c1-c1nc(Nc2cc(N3CCC[C@H](N)C3)c(-c3cnn(C4CCOCC4)c3)cn2)ccc1[N+](=O)[O-]` [Example 70, 4-((S)-3-aminopiperidin-1-yl)-N-(6-(2-fluoro-6-methoxyphenyl)-5-nitropyridin-2-yl)-5-(1-(tetrahydro-2H-pyran-4-yl)-1H-pyrazol-4-yl)pyridin-2-amine hydrochloride]: the IC50 is at most 0.01 µM.
For the compound `COC(=O)c1ccc(Nc2cc(N3CCC[C@H](N)C3)c(-c3cnn(C4CCOCC4)c3)cn2)nc1-c1c(F)cccc1OC` [Example 71, methyl 6-((4-((S)-3-aminopiperidin-1-yl)-5-(1-(tetrahydro-2H-pyran-4-yl)-1H-pyrazol-4-yl)pyridin-2-yl)amino)-2-(2-fluoro-6-methoxyphenyl)nicotinate hydrochloride], the IC50 is at most 0.01 µM.
In the case of `COc1cccc(F)c1-c1nccc(Nc2cc(N3CCC[C@H](O)C3)c(-c3cnn(C(F)F)c3)cn2)n1` [Example 72, (S)-1-(5-(1-(difluoromethyl)-1H-pyrazol-4-yl)-2-((2-(2-fluoro-6-methoxyphenyl)pyrimidin-4-yl)amino)pyridin-4-yl)piperidin-3-ol] it was at most 0.01 µM.
For the compound `COc1cccc(F)c1-c1nccc(Nc2cc(N3CCC[C@H](N)C3)c(-c3cnn(C(F)F)c3)cn2)n1` [Example 73, (S)-N-(4-(3-aminopiperidin-1-yl)-5-(1-(difluoromethyl)-1H-pyrazol-4-yl)pyridin-2-yl)-2-(2-fluoro-6-methoxyphenyl)pyrimidin-4-amine hydrochloride], the IC50 was at most 0.01 µM.
`COc1cccc(F)c1-c1nccc(Nc2cc(N3CCC[C@H](N)C3)c(-c3cnn(C4CCN(C)CC4)c3)cn2)n1` [Example 74, (S)-N-(4-(3-aminopiperidin-1-yl)-5-(1-(1-methylpiperidin-4-yl)-1H-pyrazol-4-yl)pyridin-2-yl)-2-(2-fluoro-6-methoxyphenyl)pyrimidin-4-amine hydrochloride]: the IC50 was at most 0.01 µM.
Take `COc1cccc(F)c1-c1nc(Nc2cc(N3CCC[C@H](O)C3)c(-c3cnn(C4CCOCC4)c3)cn2)ccc1Cl` [Example 75, (3S)-1-(2-((5-chloro-6-(2-fluoro-6-methoxyphenyl)pyridin-2-yl)amino)-5-(1-(tetrahydro-2H-pyran-4-yl)-1H-pyrazol-4-yl)pyridin-4-yl)piperidin-3-ol]: the IC50 was at most 0.01 µM.
Consider `COc1cccc(F)c1-c1nc(Nc2cc(N3CCC[C@H](N)C3)c(-c3cnn(C(F)F)c3)cn2)ccc1F` [Example 76, 4-((S)-3-aminopiperidin-1-yl)-5-(1-(difluoromethyl)-1H-pyrazol-4-yl)-N-(5-fluoro-6-(2-fluoro-6-methoxyphenyl)pyridin-2-yl)pyridin-2-amine hydrochloride], for which the IC50 was at most 0.01 µM.
For `COc1cccc(F)c1-c1nccc(Nc2cc(N3CCC[C@@H](N)C3)c(-c3cnn(CC(F)(F)F)c3)cn2)n1` [Example 77, (R)-N-(4-(3-aminopiperidin-1-yl)-5-(1-(2,2,2-trifluoroethyl)-1H-pyrazol-4-yl)pyridin-2-yl)-2-(2-fluoro-6-methoxyphenyl)pyrimidin-4-amine hydrochloride], the IC50 was at most 0.01 µM.
In the case of `COc1cccc(F)c1-c1nccc(Nc2cc(N3CCC[C@H](N)C3)c(-c3cnn(CC(F)(F)F)c3)cn2)n1` [Example 78, (S)-N-(4-(3-aminopiperidin-1-yl)-5-(1-(2,2,2-trifluoroethyl)-1H-pyrazol-4-yl)pyridin-2-yl)-2-(2-fluoro-6-methoxyphenyl)pyrimidin-4-amine hydrochloride], the IC50 is at most 0.01 µM.
With `COc1cccc(F)c1-c1nccc(Nc2cc(N3CCC[C@H](N)C3)c(C#CC3CCOCC3)cn2)n1` [Example 79, (S)-N-(4-(3-aminopiperidin-1-yl)-5-((tetrahydro-2H-pyran-4-yl)ethynyl)pyridin-2-yl)-2-(2-fluoro-6-methoxyphenyl)pyrimidin-4-amine hydrochloride], the IC50 was at most 0.01 µM.
For the compound `N[C@H]1CCCN(c2cc(Nc3ccnc(-c4cccnc4O)n3)ncc2-c2cnn(C3CCOCC3)c2)C1` [Example 80, (S)-3-(4-((4-(3-aminopiperidin-1-yl)-5-(1-(tetrahydro-2H-pyran-4-yl)-1H-pyrazol-4-yl)pyridin-2-yl)amino)pyrimidin-2-yl)pyridin-2-ol hydrochloride], the IC50 is at most 0.01 µM.
On to `COc1cccc(F)c1-c1nccc(Nc2cc(N3CCC[C@H](O)C3)c(-c3ccc(OC4CCN(C)CC4)cn3)cn2)n1` [Example 81, (S)-1-(6′-((2-(2-fluoro-6-methoxyphenyl)pyrimidin-4-yl)amino)-5-((1-methylpiperidin-4-yl)oxy)-[2,3′-bipyridin]-4′-yl)piperidin-3-ol], for which the IC50 is above 0.1 µM.
With `COc1cccc(F)c1-c1nccc(Nc2cc(N3CCC[C@H](N)C3)c(-c3ccc(C4CCOCC4)nc3)cn2)n1` [Example 82, (S)-4-(3-aminopiperidin-1-yl)-N-(2-(2-fluoro-6-methoxyphenyl)pyrimidin-4-yl)-6′-(tetrahydro-2H-pyran-4-yl)-[3,3′-bipyridin]-6-amine hydrochloride], the IC50 was at most 0.01 µM.
On to `COc1cccc(F)c1-c1nccc(Nc2cc(N3CCC[C@H](N)C3)c(-c3ccc(C4CCN(C)CC4)nc3)cn2)n1` [Example 83, (S)-4-(3-aminopiperidin-1-yl)-N-(2-(2-fluoro-6-methoxyphenyl)pyrimidin-4-yl)-6′-(1-methylpiperidin-4-yl)-[3,3′-bipyridin]-6-amine hydrochloride], for which the IC50 is at most 0.01 µM.
Take `COc1cccc(F)c1-c1nccc(Nc2cc(N3CCCC(CC(F)(F)F)C3)c(-c3cnn(C4CCOCC4)c3)cn2)n1` (stereo not shown) [Example 84, 2-(2-fluoro-6-methoxyphenyl)-N-(5-(1-(tetrahydro-2H-pyran-4-yl)-1H-pyrazol-4-yl)-4-(3-(2,2,2-trifluoroethyl)piperidin-1-yl)pyridin-2-yl)pyrimidin-4-amine]: the IC50 was 0.01 to 0.05 µM.

For the origin of these results see patent US20260347338A1, “PYRIMIDINE/PYRIDINE DERIVATIVES OR SALTS THEREOF AND PHARMACEUTICAL COMPOSITIONS COMPRISING THE SAME” (YUHAN CORPORATION, priority 2023, published 2026).
